From US20230097866A1, “BACTERIAL TOPOISOMERASE INHIBITORS DERIVED FROM ISOMANNIDE” (Ohio State Innovation Foundation, priority 2020, published 2023)
Values after ≈ are worked out from the molar mass of the structure shown. Like-named read-outs stand apart in the source and are kept apart here.

How the values were obtained:
[1] = test system: S. aureus ATCC 29213; experiment: MIC, CLSI broth microdilution, S. aureus ATCC 29213; assay type: cell-based; conditions: Staphylococcus aureus
[2] = test system: USA300 isolate of MRSA; experiment: MIC, CLSI broth microdilution, USA300 MRSA; assay type: cell-based; conditions: Staphylococcus aureus, read-out: MIC USA300
[3] = test system: S. aureus strain isolated from a cystic fibrosis patient; experiment: MIC, CLSI broth microdilution, CF isolate; assay type: cell-based; conditions: Staphylococcus aureus, read-out: MIC CF isolate
[4] = biological target: S. aureus DNA gyrase (Staphylococcus aureus, UniProt P20831); experiment: Inhibition of DNA gyrase, biochemical assay (Inspiralis)
Sequence of S. aureus DNA gyrase (P0A0K8 whole entry): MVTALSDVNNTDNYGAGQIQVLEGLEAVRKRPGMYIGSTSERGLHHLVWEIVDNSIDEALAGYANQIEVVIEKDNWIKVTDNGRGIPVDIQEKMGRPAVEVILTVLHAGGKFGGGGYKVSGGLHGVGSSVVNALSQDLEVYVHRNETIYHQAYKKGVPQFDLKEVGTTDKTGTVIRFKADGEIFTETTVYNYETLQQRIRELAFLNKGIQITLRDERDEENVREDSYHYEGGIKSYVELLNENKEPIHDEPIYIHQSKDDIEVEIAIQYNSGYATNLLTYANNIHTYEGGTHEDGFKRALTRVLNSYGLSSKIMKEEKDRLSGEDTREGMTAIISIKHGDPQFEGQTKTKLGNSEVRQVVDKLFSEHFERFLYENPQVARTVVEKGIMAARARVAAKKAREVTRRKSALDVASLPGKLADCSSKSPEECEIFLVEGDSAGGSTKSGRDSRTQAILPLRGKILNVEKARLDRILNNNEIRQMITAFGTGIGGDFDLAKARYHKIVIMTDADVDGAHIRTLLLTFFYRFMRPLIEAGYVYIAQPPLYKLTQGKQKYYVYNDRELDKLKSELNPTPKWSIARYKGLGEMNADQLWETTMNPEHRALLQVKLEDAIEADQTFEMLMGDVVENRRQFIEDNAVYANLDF
Sequence of S. aureus DNA gyrase (P20831 whole entry): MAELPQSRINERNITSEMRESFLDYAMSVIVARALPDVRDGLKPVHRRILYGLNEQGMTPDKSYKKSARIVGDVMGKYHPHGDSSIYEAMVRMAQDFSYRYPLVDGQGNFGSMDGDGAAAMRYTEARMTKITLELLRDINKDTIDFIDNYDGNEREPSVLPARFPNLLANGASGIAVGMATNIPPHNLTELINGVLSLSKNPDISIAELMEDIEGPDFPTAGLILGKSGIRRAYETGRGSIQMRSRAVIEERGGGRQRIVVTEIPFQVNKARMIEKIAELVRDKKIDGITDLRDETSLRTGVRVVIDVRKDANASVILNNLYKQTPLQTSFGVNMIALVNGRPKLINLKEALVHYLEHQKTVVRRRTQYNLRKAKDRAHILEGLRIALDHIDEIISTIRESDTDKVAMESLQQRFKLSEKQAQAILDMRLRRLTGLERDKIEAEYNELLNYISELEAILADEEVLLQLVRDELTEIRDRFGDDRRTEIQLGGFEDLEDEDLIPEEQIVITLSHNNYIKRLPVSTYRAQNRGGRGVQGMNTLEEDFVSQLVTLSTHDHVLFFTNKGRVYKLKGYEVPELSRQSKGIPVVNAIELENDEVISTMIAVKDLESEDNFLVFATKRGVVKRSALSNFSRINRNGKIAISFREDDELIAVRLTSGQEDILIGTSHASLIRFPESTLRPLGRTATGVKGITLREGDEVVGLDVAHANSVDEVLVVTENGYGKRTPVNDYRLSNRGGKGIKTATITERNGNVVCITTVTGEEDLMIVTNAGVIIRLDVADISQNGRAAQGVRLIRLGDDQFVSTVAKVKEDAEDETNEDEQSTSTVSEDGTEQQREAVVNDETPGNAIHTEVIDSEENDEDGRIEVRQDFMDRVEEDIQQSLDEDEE

[5] = biological target: TopoIV from S. aureus (Staphylococcus aureus, UniProt P0C1U9); experiment: biochemical; assay type: biochemical
Sequence of TopoIV from S. aureus (P0C1S7 whole entry): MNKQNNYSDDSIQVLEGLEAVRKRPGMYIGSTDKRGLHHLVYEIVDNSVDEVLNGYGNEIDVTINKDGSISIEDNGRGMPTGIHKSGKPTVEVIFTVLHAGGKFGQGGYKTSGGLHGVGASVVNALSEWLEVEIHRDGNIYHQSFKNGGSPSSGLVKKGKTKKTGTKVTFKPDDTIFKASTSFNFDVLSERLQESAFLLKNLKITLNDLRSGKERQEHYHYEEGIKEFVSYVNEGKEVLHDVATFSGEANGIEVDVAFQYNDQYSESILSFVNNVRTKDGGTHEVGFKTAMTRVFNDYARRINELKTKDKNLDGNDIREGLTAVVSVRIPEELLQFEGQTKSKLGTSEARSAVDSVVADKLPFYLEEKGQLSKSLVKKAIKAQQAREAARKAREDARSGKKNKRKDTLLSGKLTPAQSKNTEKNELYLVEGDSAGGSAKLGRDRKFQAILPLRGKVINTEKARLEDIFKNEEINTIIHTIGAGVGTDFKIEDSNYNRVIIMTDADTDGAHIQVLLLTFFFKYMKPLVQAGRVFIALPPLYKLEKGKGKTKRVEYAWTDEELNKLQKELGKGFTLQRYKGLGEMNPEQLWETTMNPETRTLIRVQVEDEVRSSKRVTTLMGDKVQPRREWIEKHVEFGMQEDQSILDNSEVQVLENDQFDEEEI
Sequence of TopoIV from S. aureus (P0C1U9 whole entry): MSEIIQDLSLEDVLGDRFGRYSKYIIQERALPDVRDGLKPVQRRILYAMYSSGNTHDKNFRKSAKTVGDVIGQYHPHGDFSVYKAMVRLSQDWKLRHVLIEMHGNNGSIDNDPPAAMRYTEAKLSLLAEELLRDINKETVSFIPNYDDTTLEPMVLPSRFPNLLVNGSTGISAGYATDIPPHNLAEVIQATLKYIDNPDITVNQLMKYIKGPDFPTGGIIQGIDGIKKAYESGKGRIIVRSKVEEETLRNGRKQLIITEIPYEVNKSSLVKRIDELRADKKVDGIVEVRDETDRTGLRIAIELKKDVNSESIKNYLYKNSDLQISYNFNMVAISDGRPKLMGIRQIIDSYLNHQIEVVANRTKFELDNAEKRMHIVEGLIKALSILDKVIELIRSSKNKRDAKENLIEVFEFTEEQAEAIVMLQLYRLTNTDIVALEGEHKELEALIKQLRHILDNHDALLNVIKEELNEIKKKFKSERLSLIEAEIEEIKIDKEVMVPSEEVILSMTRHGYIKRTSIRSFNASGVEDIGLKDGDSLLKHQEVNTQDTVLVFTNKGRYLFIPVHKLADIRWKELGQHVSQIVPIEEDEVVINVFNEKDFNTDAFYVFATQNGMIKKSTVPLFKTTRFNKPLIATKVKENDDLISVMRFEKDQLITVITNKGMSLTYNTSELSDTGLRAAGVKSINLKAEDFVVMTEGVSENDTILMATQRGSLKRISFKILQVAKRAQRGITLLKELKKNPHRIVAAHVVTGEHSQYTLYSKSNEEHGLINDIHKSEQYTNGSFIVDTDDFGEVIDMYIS

[6] = test system: S. aureus ATCC 29213; experiment: microbe, parasite or virus in culture; assay type: cell-based; conditions: Staphylococcus aureus, ATCC29213, read-out: S. aureus ATCC 29213 MIC (n = 2)
Description: In order to determine the spontaneous mutation frequency of investigational agents (Table 4), the MIC was first determined using the agar dilution method as recommended by the Clinical and Laboratory Standards Institute.
Triplicate independent inocula of S. aureus ATCC 29213 were evaluated.

[7] = test system: S. aureus ATCC 29213; assay type: cell-based, Staphylococcus aureus
[8] = biological target: hERG (Homo sapiens, UniProt Q12809); experiment: hERG IC50, IonWorks Barracuda (Charles River); conditions: 24 versus cyclohexane-linked 31 and 32
Sequence of hERG (Q12809 whole entry): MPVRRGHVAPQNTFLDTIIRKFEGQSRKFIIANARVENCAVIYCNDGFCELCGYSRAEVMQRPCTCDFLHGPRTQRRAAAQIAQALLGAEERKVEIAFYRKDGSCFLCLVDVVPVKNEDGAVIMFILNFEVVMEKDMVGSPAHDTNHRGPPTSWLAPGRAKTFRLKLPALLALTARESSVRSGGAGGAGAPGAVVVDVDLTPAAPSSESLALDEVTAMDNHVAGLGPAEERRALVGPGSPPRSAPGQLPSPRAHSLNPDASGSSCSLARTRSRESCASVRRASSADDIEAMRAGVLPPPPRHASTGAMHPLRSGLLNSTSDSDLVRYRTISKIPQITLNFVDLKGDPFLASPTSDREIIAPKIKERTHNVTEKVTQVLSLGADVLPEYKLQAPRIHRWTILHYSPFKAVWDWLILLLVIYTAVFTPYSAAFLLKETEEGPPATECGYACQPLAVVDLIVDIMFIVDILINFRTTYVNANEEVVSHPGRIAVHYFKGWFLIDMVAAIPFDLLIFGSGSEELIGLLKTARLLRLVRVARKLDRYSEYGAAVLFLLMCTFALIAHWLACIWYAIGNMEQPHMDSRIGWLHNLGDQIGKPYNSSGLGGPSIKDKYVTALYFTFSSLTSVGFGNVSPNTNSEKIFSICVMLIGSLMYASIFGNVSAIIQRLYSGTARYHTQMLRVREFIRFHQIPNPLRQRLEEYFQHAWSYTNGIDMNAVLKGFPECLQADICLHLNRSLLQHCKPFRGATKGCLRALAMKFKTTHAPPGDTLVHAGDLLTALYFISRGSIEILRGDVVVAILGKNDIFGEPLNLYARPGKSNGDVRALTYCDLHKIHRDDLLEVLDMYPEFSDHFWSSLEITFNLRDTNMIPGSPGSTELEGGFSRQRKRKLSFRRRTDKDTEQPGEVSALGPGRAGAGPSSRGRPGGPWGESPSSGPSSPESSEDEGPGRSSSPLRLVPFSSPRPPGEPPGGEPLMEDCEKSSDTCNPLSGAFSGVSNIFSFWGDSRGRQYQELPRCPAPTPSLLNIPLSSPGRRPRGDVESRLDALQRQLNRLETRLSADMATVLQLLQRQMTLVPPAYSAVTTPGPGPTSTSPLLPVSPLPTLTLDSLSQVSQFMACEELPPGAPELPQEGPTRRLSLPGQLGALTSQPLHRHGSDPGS
Description: The design of these isomannide-detived NBTIs focused on enhanced polarity and modulation of basicity through the two electronegative oxygen atoms in the linker.

[9] = ATCC29213, read-out: MIC ATCC 29213
[10] = ATCC29213, CLSI broth microdilution, triplicate, read-out: MIC ATCC 29213
[11] = CLSI broth microdilution, ciprofloxacin-resistant MRSA

Row | Compound | MIC [1, 9] | MIC [2] | MIC [3] | IC50 [4] | MIC [1, 10] | MIC [2, 11] | MIC ([3]; CLSI broth microdilution) | further results
1 | COc1ccc2ncc(F)c(CC[C@@]3(O)CO[C@@H]4[C@@H](NCc5ccc6c(n5)NC(=O)CO6)CO[C@@H]43)c2n1 [Compound 7, 6-((((3S,3aR,6R,6aS)-6-(2-(3-fluoro-6-methoxy-1,5-tnaphthyriditn-4-yl)ethyl)-6-hydroxyhexahydrofuro[3,2-b]furan-3-yl)amino)methyl)-2H-pyrido[3,2-b][1,4]oxazin-3(4H)-one] | 2 µg/mL (≈ 3.91 µM) | 1 to 2 µg/mL (≈ 1.95 to 3.91 µM) | 2 µg/mL (≈ 3.91 µM) | 540 nM | – | – | – | TopoIV IC50 [5]: No activity
2 | COc1ccc2nccc(CC[C@@]3(O)CO[C@@H]4[C@@H](NCc5ccc6c(c5)OCCO6)CO[C@@H]43)c2c1 [Compound 21, (3R,3aS,6S, 6aR)-6-(((2,3-dihydrobenzo[b][1,4]dioxin-6-yl)methyl)amino)-3-(2-(6-methoxyquinalin-4-yl)ethyl)hexahydrofuro[3,2-b]furan-3-ol] | – | – | – | – | 16 to 32 µg/mL (≈ 33.4 to 66.9 µM) | 16 µg/mL (≈ 33.4 µM) | 16 µg/mL (≈ 33.4 µM) | –
3 | COc1ccc2nccc(CC[C@@]3(O)CO[C@@H]4[C@@H](NCc5ccccc5)CO[C@@H]43)c2c1 [Compound 22, (3R,3aS,6S,6aR)-6-(benzylamino)-3-(2-(6-methoxyquinolin-4-yl)ethyl)hexahydrofuro[3,2-b]furan-3-ol] | – | – | – | – | > 8 µg/mL | > 8 µg/mL | > 8 µg/mL | –
4 | COc1ccc2nccc(CC[C@@]3(O)CO[C@@H]4[C@@H](NCc5ccc(C)cc5)CO[C@@H]43)c2c1 [Compound 23, (3R,3aS,6S,6aR)-3-(2-(6-methoxyquinolin-4-yl)ethyl)-6-((4-methylbenzyl)amino)hexahydrofuro[3,2-h]furan-3-ol] | – | – | – | – | > 8 µg/mL | > 8 µg/mL | > 8 µg/mL | –
5 | COc1ccc2ncc(F)c(CC[C@@]3(O)CO[C@@H]4[C@@H](NCc5ccc6c(c5)OCCO6)CO[C@@H]43)c2n1 [Compound 24, (3R,3aS,6S, 6aR)-6-(((2,3-dihydrobenzo[b][1,4]dioxin-6-yl)methyl)amino)-3-(2-(3-fluoro-6-methoxy-1,5-naphthyridin-4-yl)ethyl)hexahydrofuro[3,2-b]furan-3-ol] | 0.5 to 1 µg/mL (≈ 1 to 2.01 µM) | 1 µg/mL (≈ 2.01 µM) | 1 µg/mL (≈ 2.01 µM) | 200 nM | – | – | – | IC50 [5]: 2600 nM; TopoIV/gyrase IC50 ratio [5]: 13; improvement of TopoIV/gyrase IC50 ratio as compared to dioxane 27 [5]: ~2 fold; MIC [6]: 0.5 µg/mL (≈ 1 µM); Spontaneous mutation frequency (8X MIC) [7]: 1.35 × 10^−9 (mean, n = 2); Spontaneous mutation frequency (16X MIC) [7]: 4.49 × 10^−10 (mean, n = 2); hERG IC50 higher than 31 and 32 [8]: > 8 fold
